Experimental findings from US7205297B2, “Substituted 5-alkynyl pyrimidines having neurotrophic activity” (Krenitsky Pharmaceuticals, Inc., priority 2000, dated 2007) are described below.

The first series deals with PC12 cells. The series is described as follows: Choline acetyltransferase (ChAT) assay in NGF-treated PC12 cells. Format: cell-based, rat. The conditions noted are these: 3 days incubation with test compound, versus NGF alone. The protocol:
Cultured PC12 cells (rat adrenal pheochromocytoma from ATCC) have receptors for NGF. Responses include promotion of neurite outgrowth and elevation of choline acetyltransferase (ChAT) (L. A. Greene and A. S. Tischler, Cell Neurobiol., 3, 373 (1982)).
The following assay is modified from that described in H L White and P W Scates, Neurochem. Res., 16, 63 (1991). PC12 cells were cultured at 37° C. in RPMI supplemented with HEPES buffer, pH7.5 (to 10 mM), fetal bovine serum, horse serum, glutamine, penicillin, streptomycin and non-essential amino acids. Cultures were split 1:3 every 3 to 4 days. Exponentially dividing cells were plated into fresh medium on collagen-coated 12-well plastic dishes (10^5 cells/well). After allowing one day for cell attachment, the medium was replaced with low serum medium, with or without test compounds with each condition in triplicate. The medium may contain up to 0.2% ethanol, which was used as a solvent for most compounds tested. Cells were examined for morphological changes using an Olympus IMT-2 inverted research microscope. After 3 days incubation with test compounds, medium was removed and replaced with 0.2 ml of lysis and ChAT assay mixture. The plates were incubated at 37° C. for 2 hours and then placed into a freezer at −20° C.
Compounds are judged NGF-like in this primary screen if they (1) increase the activity of ChAT, (2) enhance NGF-stimulated neurite outgrowth or (3) potentiate or appear additive with the action of NGF itself.
The assay mixture contained 100 mM phosphate, pH7.4, 0.1% NP40, 150 mM NaCl, 1.5 mM choline, 10 mM EDTA, 0.1 mM eserine, 0.1 mM acetyl-coenzyme A and about 0.5 uCi (40–70 Ci/mol) [14C]acetyl-coenzyme A in each ml of mixture. Thawed and lysed cell reaction mixtures were diluted to 1 ml with water and transferred to 7 ml scintillation vials containing 5 ml of extraction/scintillation fluid solution (50 mg triphenyl borate, 50 mg PPO, 20 mg POPOP per 100 ml of 20% acetonitrile/80% toluene) and vortexed for 10 seconds. After all 20 diluted well contents were transferred and mixed, all the vials were vortexed again for 30 seconds, rotated for about 2 hours, and then vortexed once more. The vials were centrifuged at 3000 rpm (rmax.=16 cm) for 15 minutes and then counted in a Beckman LS6500 scintillation counter. Background counts from reaction mixtures with extracts from non-stimulated cells (no NGF and no test compound) were subtracted from reaction product counts before comparisons of ChAT activities were made.
The following data were obtained for representative compounds of the present invention which (1) increased the activity of choline acetyltransferase ChAT), (2) enhanced NGF-stimulated neurite outgrowth and/or (3) potentiated or appeared additive with the action of NGF itself. The concentration at which the test compound doubled the ChAT activity over the activity with NGF alone (no test compound) was recorded as the EC2x value.
Consider `Nc1ncc(C#Cc2ccccc2)c(N[C@H]2CC[C@H](O)CC2)n1` [Example 9, 2-amino-4-(trans-4-hydroxycyclohexylamino)-5-phenylethynylpyrimidine], for which the “EC2× (concentration at which the test compound doubled the ChAT activity over the activity with NGF alone)” value turned out to be 0.1 µM. Turning to `Nc1ncc(C#Cc2ccc(Cl)cc2)c(N[C@H]2CC[C@@H](O)CC2)n1` [Example 23, 2-amino-5-(4-chlorophenylethynyl)-4-(4-cis-hydroxycyclohexylamino)pyrimidine], the “EC2× (concentration at which the test compound doubled the ChAT activity over the activity with NGF alone)” value came to 0.3 µM. Turning to `CCc1ccc(C#Cc2cnc(N)nc2N[C@H]2CC[C@H](O)CC2)cc1.Cl` [Example 26, 2-amino-5-(4-ethylphenylethynyl)-4-(4-trans-hydroxycyclohexylamino) pyrimidine hydrochloride], the “EC2× (concentration at which the test compound doubled the ChAT activity over the activity with NGF alone)” value worked out at 0.2 µM.

For the compound `O[C@H]1CC[C@H](Nc2ncncc2C#Cc2ccc(Cl)cc2)CC1` [Example 4, 5-(4-chlorophenylethynyl)-4-(trans-4-hydroxycyclohexylamino) pyrimidine], the “EC2× (concentration at which the test compound doubled the ChAT activity over the activity with NGF alone)” value turned out to be 0.2 µM.

For `Nc1ncc(C#Cc2ccc(Cl)cc2)c(NCCOCCO)n1` [Example 14, 2-amino-5-(4-chlorophenylethynyl)-4-[2-(2-hydroxyethoxy)ethylamino]pyrimidine], the “EC2× (concentration at which the test compound doubled the ChAT activity over the activity with NGF alone)” value worked out at 0.5 µM.

`Nc1ncc(C#Cc2ccc(Cl)cc2)c(N[C@H]2CC[C@H](O)CC2)n1` [Example 12, 2-amino-5-(4-chlorophenylethynyl)-4-(trans-4-hydroxycyclohexylamino)pyrimidine]: the “EC2× (concentration at which the test compound doubled the ChAT activity over the activity with NGF alone)” value was determined as 0.2 µM.

Regarding `Nc1ncc(C#Cc2ccc(Cl)cc2)c(NCCO)n1` [Example 13, 2-amino-5-(4-chlorophenylethynyl)-4-(2-hyroxyethylamino) pyrimidine], the “EC2× (concentration at which the test compound doubled the ChAT activity over the activity with NGF alone)” value came out at 0.3 µM.

Test system in another series: not given
Assay: not given
Conditions: not given
As to `O[C@H]1CC[C@H](Nc2ncncc2C#Cc2ccc(Cl)cc2)CC1` (hydrate or solvate) [Example 4, 5-(4-chlorophenylethynyl)-4-(trans-4-hydroxycyclohexylamino) pyrimidine], the melting point (usually the temperature, or range, at which the solid turns liquid) lay within 151 to 155 °C. Take `Nc1ncc(C#Cc2ccccc2)c(NCCOCCO)n1` [Example 19, 2-amino-4-[2-(2-hydroxyethoxy)ethylamino]-5-phenylethynyl pyrimidine]: the melting point was 128 to 129 °C. Turning to `COc1ccc(C#Cc2cnc(N)nc2Nc2ccc(O)cc2)cc1.Cl`, the melting point is 220 to 230 °C (dec.). For the compound `Cl.Oc1ccc(Nc2ncncc2C#Cc2ccccc2)cc1`, the melting point was 223 to 225 °C (dec.). Compound `Nc1ncc(C#Cc2ccc(Cl)cc2)c(OC2CCC(=O)CC2)n1` [Example 41, 2-amino-5-(4-chlorophenylethynyl)-4-(4-oxocyclohexyloxy) pyrimidine] had a melting point of 168 to 172 °C. `Nc1ncc(C#Cc2ccc(Cl)cc2)c(NCCOCCO)n1` [Example 14, 2-amino-5-(4-chlorophenylethynyl)-4-[2-(2-hydroxyethoxy)ethylamino]pyrimidine] yielded a melting point of 176 to 180 °C. In turn, `Nc1ncc(C#Cc2ccc(Cl)cc2)c(N[C@H]2CC[C@H](O)CC2)n1` [Example 12, 2-amino-5-(4-chlorophenylethynyl)-4-(trans-4-hydroxycyclohexylamino)pyrimidine] had a melting point of 215 to 218 °C.
